Target: hERG (Potassium voltage-gated channel subfamily H member 2) (Homo sapiens, UniProt Q12809)
Assay: hERG Channel Inhibition
Details: HEK293 cells stably expressing hERG channel, pH 7.35
Protocol: The assay was performed on hERG channel stably expressed in HEK293 cells. The cells were cultured at 37° C. in a humidified CO2 incubator in the growth medium consisting of DMEM, 10% fetal bovine serum and antibiotics. Prior to the assay, the cells were seeded onto a 12-mm PDL-coated glass coverslip and cultured in a 35-mm Petri dish. […] Giga-seal was maintained during the test. […] Whole-cell hERG currents were recorded following the Petroski protocol: the cell was held at −80 mV, and the voltage step jumped from −80 to 30 mV and stay for 2 seconds with a 20-millisecond prepulse at −40 mV. After depolarization, the voltage was decreased to −40 mV and stay for 2 seconds, and returned back to −80 mV. Test compound was applied by quartz capillary tubes tip (200 m inner diameter), and the flow rate was controlled at 2-3 mL/min with OctaFlow perfusion system. Different concentrations of the compound were applied to the cells for 5 minutes and the hERG current was measured three times before, during and after compound treatment. The data were analyzed using Clampfit 10 software (Molecular Devices) to generate IC50 values.

Chain of hERG (Potassium voltage-gated channel subfamily H member 2) (Q12809 whole entry): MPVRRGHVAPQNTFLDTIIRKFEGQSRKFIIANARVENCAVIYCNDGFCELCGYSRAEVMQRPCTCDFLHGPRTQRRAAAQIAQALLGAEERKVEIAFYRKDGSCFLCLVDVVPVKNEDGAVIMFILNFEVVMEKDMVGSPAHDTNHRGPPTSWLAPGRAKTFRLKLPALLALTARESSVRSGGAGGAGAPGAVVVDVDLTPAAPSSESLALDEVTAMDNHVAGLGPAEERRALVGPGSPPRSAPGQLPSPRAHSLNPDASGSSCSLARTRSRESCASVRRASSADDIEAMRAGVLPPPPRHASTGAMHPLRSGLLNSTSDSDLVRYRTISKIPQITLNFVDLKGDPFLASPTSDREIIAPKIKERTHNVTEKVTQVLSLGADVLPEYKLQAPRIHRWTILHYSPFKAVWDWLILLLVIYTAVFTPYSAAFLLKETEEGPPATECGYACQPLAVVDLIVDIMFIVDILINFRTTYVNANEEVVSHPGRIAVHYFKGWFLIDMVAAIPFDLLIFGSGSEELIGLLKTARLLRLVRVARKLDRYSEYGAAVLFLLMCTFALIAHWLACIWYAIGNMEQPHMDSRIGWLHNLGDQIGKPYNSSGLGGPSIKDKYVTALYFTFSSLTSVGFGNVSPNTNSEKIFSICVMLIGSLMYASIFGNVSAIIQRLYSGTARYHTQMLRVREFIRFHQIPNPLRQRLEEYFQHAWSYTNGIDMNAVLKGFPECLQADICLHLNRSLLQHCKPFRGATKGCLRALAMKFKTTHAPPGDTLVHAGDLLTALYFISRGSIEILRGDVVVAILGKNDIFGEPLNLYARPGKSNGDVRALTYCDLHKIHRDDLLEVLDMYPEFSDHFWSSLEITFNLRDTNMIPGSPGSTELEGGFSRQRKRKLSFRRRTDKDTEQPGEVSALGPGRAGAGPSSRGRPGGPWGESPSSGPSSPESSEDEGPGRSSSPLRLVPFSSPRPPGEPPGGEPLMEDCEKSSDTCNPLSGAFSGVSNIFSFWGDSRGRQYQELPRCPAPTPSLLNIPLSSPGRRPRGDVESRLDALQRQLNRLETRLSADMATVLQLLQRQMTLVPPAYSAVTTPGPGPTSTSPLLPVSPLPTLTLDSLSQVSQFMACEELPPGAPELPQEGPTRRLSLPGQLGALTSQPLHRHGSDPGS

How did the IC50 at 5 min turn out when `FC(F)(F)Oc1ccc(C(F)(F)CN2CCC(Nc3ncnc4[nH]ccc34)CC2)nc1` [US11752155, Compound C-11A'] was run?
Its IC50 at 5 min is 3.8 µM.
